Reference: PubChem BioAssay (NCI)
Several values for one entry are separate records, joined by “and”; a condition that tells them apart may be missing. Identical values can stand only once.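 Briefly, cells in 96-well plates were exposed to five compound concentrations for 48 h, and endpoints were estimated by linear interpolation. At the GI50, growth is halved. The concentration for full growth arrest is given as TGI.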

Tests used:
Assay in all cases: NCI tumour cell line growth inhibition, 48 h
KM12 colon = test system: KM12 colon
UACC-257 melanoma = test system: UACC-257 melanoma
OVCAR-8 ovarian = test system: OVCAR-8 ovarian
OVCAR-5 ovarian = test system: OVCAR-5 ovarian
K-562 leukemia = test system: K-562 leukemia
MOLT-4 leukemia = test system: MOLT-4 leukemia
SN12C renal = test system: SN12C renal
PC-3 prostate = test system: PC-3 prostate

Row | Compound | GI50 (KM12 colon) | TGI (KM12 colon) [µM] | GI50 (UACC-257 melanoma) | TGI (UACC-257 melanoma) | GI50 (OVCAR-8 ovarian) | TGI (OVCAR-8 ovarian) | GI50 (OVCAR-5 ovarian) | TGI (OVCAR-5 ovarian) | GI50 (K-562 leukemia) | TGI (K-562 leukemia) | GI50 (MOLT-4 leukemia) | TGI (MOLT-4 leukemia) [µM] | GI50 (SN12C renal) | TGI (SN12C renal) | GI50 (PC-3 prostate) | TGI (PC-3 prostate)
1 | COc1ccc(-c2conc2-c2ccccc2)cc1 | 108 nM | 11 | 18.3 µM | > 100 µM | 604 nM | > 100 µM | 832 nM | > 100 µM | 60.3 nM | > 100 µM | 706 nM | > 100 | 1000 nM | > 100 µM | 363 nM | > 100 µM
2 | COc1ccc(C2NC(=S)NC3=C2COc2ccc(F)cc23)cc1OC (centres undefined) | 25900 nM | > 100 | 14.2 µM | 45.4 µM | 19400 nM | 60.9 µM | 18600 nM | 48.1 µM | 15900 nM | > 100 µM | 54600 nM | > 100 | 15100 nM | 50.1 µM | 14200 nM | 87.9 µM
3 | COc1ccc(-c2nn(-c3cccc(Cl)c3)cc2/C=C2\C(=N)N(c3ccccc3)N=C2N)cc1 | 200 nM | 1.79 | 2.14 µM | 33.6 µM | 1120 nM | > 100 µM | 2080 nM | > 65.9 µM | 352 nM | 32.6 µM | 511 nM | 22.3 | 3330 nM | > 100 µM | 601 nM | > 59 µM
4 | CCCCCCCCCCCCNC(=O)[C@H]1CSC(c2ccsc2)N1 (some centres undefined) | 868 nM | 1.64 | 0.946 µM | 1.7 µM | 1110 nM | 2.26 µM | 991 nM | 1.83 µM | 1020 nM | 2.04 µM | 895 nM | 1.84 | 911 nM | 1.64 µM | 837 nM | 1.56 µM
5 | COc1cc(/C=C2\C(=O)Nc3ccc(Br)cc32)cc(OC)c1OC | 3330 nM | > 92.4 | > 50.7 µM | > 100 µM | 34300 nM | > 100 µM | 30600 nM | > 100 µM | 1110 nM | > 100 µM | 8510 nM | > 100 | > 93800 nM | > 100 µM | 3920 nM | > 100 µM
6 | COc1ccc(CNC(=O)c2ccc(-c3cc(-c4nnc(C)o4)ccc3C)cc2)cc1 | > 25000 nM | > 25 | 12.8 µM | > 25 µM | > 25000 nM | > 25 µM | > 25000 nM | > 25 µM | 11200 nM | > 25 µM | 15600 nM | > 25 | > 25000 nM | > 25 µM | 19200 nM | > 25 µM
7 | O=C(Nc1nc2ccc(F)cc2s1)c1cccnc1Nc1ccc(Cl)cc1Cl | 2780 nM | 9.54 | 0.753 µM | 7.73 µM | 3430 nM | 22.8 µM | 7710 nM | 28.9 µM | 1930 nM | 9.26 µM | 2350 nM | 17.3 | 2650 nM | 13.7 µM | 2210 nM | 9.45 µM
8 | Cc1ccc(-c2cc(C(Cl)Cl)on2)cc1 | 36600 nM | > 100 | 67.7 µM | > 100 µM | > 100000 nM | > 100 µM | > 100000 nM | > 100 µM | – | – | 26800 nM | > 100 | > 100000 nM | > 100 µM | 49900 nM | > 100 µM
9 | CCCC(=O)Nc1cn(COC)c(C(=O)N2C[C@H]3C[C@@]34C2=CC(=O)c2[nH]cc(C)c24)n1 | 8810 nM | > 100 | 10.5 µM | 18.7 µM and 83.3 µM | – | 14.6 µM and 20.1 µM | 6130 nM | 50 µM and > 100 µM | 7410 nM | 50 µM and > 100 µM | 1600 nM | – | 5550 nM | 42.9 µM and 71.2 µM | – | 50 µM and > 100 µM
10 | O=c1c2ccccc2c(=O)c2c1sc1c(=O)c3ccc(O)cc3c(=O)c12 | 2050 nM | 8.24 | 0.28 µM | 0.736 µM | 1780 nM | 8.31 µM | 1740 nM | 3.65 µM | 715 nM | > 100 µM | 2170 nM | 8.07 | 187 nM | 0.36 µM | – | –
11 | Oc1cccc(-c2nc(N3CCOCC3)c3oc4ncccc4c3n2)c1 | 286 nM and 297 nM | > 100 | 0.593 µM and 0.421 µM | 3.39 µM and 3.79 µM | 238 nM and 193 nM | 6.75 µM | 2380 nM and 2840 nM | > 26.6 µM | 1350 nM and 2180 nM | > 100 µM | 102 nM and 168 nM | > 100 | 92.3 nM and 136 nM | > 100 µM | 50.5 nM and 46.2 nM | > 100 µM
12 | COc1ccc(-c2nc(/C=N/Nc3cc(C)nc4ccc(Br)cc34)c(C)o2)cc1 | 1800 nM | 3.62 | 1.94 µM | 3.57 µM | 1790 nM | 3.86 µM | 1950 nM | 3.41 µM | – | – | – | – | 1930 nM | 3.62 µM | 1670 nM | 3.2 µM
13 | O=C(/C(=N/Nc1cn[nH]c(=O)c1Cl)c1ccccc1)c1ccccc1 | – | 32.9 | – | 80.2 µM | – | > 100 µM | – | – | – | > 100 µM | – | 97.2 | – | > 100 µM | – | > 100 µM
14 | C/C(=N\O)[C@H]1CC[C@@]2(C)[C@@H]3CC[C@H]4C(C)(C)/C(=N/O)CC[C@@]45CC35CC[C@]12C (some centres undefined) | 2840 nM | 7.03 | 5.53 µM | 10.1 µM | 3640 nM | 9.39 µM | – | – | 3420 nM | > 16.7 µM | 3260 nM | > 16.7 | 6580 nM | > 16.7 µM | 2330 nM | 6.9 µM
15 | COC12C=C/C(=C(/C(=O)OCc3csc(SC)n3)C(=O)CCCCCCCCC3(OC)C=C/C(=C(/C(=O)OCc4cnc(SC)s4)C(=O)CCCCCCCC1)O3)O2 (centres undefined) | 3100 nM | > 100 | 6.01 µM | > 100 µM | 2080 nM | 32.4 µM | 7630 nM | > 100 µM | 3190 nM | > 100 µM | – | – | 3630 nM | > 100 µM | 4160 nM | > 100 µM
16 | CC(=O)Oc1ccc2c(c1)O/C(=C\c1ccc(O)cc1)C2=O | – | > 100 | – | > 100 µM | – | > 100 µM | – | – | – | > 100 µM | – | > 100 | – | > 100 µM | – | > 100 µM
17 | O=C(O)C(Cc1c[nH]c2ccccc12)N1C(=O)c2ccccc2C1=O (centres undefined) | – | > 100 | – | > 100 µM | – | > 100 µM | – | > 100 µM | – | – | – | – | – | > 100 µM | – | > 100 µM
